Source: patent US7858794B2, “Tetrahydroquinoline derivatives” (N.V. Organon, priority 2002, dated 2010)

target: T1, human FSH receptor (Homo sapiens, UniProt P23945); assay: CHO-FSH in vitro bioactivity (CRE-luciferase reporter, agonistic or antagonistic set-up); assay type: cell-based; conditions: CHO cells stably transfected with human FSH receptor and CRE-luciferase; either agonistic or antagonistic (rec-hFSH, 10 mU/ml) assay set-up or both / at least one of the assays; read-out: EC50 (IC50)
T1 construct: expressed in transfected cells; host or cells: Chinese Hamster Ovary (CHO) cells
T1 sequence (P23945 18-695): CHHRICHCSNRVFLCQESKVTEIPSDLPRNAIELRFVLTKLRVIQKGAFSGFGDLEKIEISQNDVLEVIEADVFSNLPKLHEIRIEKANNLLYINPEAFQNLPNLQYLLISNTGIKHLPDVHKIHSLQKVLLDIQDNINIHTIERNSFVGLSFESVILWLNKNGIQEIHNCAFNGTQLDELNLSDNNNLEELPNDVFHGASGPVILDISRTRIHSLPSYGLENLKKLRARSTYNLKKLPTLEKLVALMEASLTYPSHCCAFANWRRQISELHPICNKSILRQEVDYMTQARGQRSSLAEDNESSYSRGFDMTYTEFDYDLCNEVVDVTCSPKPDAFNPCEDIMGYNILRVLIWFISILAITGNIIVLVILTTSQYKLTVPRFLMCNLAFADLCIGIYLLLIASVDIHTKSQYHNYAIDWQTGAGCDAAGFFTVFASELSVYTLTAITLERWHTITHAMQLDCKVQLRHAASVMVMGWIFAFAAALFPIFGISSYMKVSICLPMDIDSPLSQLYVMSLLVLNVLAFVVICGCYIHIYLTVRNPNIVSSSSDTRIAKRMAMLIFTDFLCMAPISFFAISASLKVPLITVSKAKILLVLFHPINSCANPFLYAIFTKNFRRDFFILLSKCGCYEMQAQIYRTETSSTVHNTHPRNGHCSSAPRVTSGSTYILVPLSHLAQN
Description: FSH activity of compounds were tested in Chinese Hamster Ovary (CHO) cells stably transfected with the human FSH receptor and cotransfected with a cAMP responsive element (CRE)/promotor directing the expression of a firefly luciferase reporter gene. Binding of ligand to the Gs-coupled FSH receptor will result in an increase of cAMP, which in turn will induce an increased transactivation of the luciferase reporter construct. To test antagonistic properties recombinant FSH in a concentration that induces approximately 80% of the maximal stimulation of cAMP accumulation in the absence of test compound was added (rec-hFSH, 10 mU/ml). The luciferase signal was quantified using a luminescence counter. For test compounds, EC50 values (concentration of test compound causing half-maximal (50%) stimulation or reduction) were calculated For that purpose the software program GraphPad PRISM, version 3.0 (GraphPad software Inc., San Diego) was used.

EC50, < 100 nM:
CC(=O)N1c2cc(OCC(=O)N(C)C)c(NC(=O)c3ccc(-c4ccccc4)cc3)cc2C(C)(c2ccccc2)CC1(C)C (stereo not shown) [Example 16, Biphenyl-4-carboxylic acid (1-acetyl-7-dimethylcarbamoylmethoxy-2,2,4-trimethyl-4-phenyl-1,2,3,4-tetrahydro-quinolin-6-yl)-amide]
CC(=O)N1c2cc(N(C)C)c(NC(=O)C(C)C)cc2C(C)(c2ccccc2)CC1(C)C (stereo not shown) [Example 38, N-(1-Acetyl-7-dimethylamino-2,2,4-trimethyl-4-phenyl-1,2,3,4-tetrahydro-quinolin-6-yl)-isobutyramide]
CC(=O)N1c2cc(N(C)C)c(NC(=O)C3CCCC3)cc2C(C)(c2ccccc2)CC1(C)C (stereo not shown) [Example 37, Cyclopentanecarboxylic acid (1-acetyl-7-dimethylamino-2,2,4-trimethyl-4-phenyl-1,2,3,4-tetrahydro-quinolin-6yl)-amide]
CCNc1cc2c(cc1NC(=O)c1ccc(-c3ccccc3)cc1)C(C)(c1ccccc1)CC(C)(C)N2C(C)=O (stereo not shown) [Example 41, Biphenyl-4-carboxylic acid (1-acetyl-7-ethylamino-2,2,4-trimethyl-4-phenyl-1,2,3,4-tetrahydro-quinolin-6-yl)amide]
